Measured values reported in PubChem BioAssay AID248 (DTP/NCI, 2004).
Where “and” joins values, the source holds several entries; their conditions need not be identical. Equal values may be shown once. Toxic doses and inconclusive results are not listed. Cut-off read from the data, not from the text of the source: active = T/C of 150% or more; inactive = T/C below 125%.

Tested on: L1210 leukemia ip in BDF1 mice, survival T/C
Experiment: NCI In Vivo Anticancer Drug Screen. Data for tumor model L1210 Leukemia (intraperitoneal) in B6D2F1 (BDF1) mice
Settings: endpoint: mean survival time, higher = longer survival
Outline: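 Transplantable tumor model; survival measured in treated vs vehicle control mice. Value = treated/control.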

[1] = dose: 100.0 mg/kg/injection, schedule: Q01DX001 (ip), vehicle: saline
[2] = dose: 100.0 mg/kg/injection, schedule: Q04DX003 (ip), vehicle: saline
[3] = dose: 200.0 mg/kg/injection, schedule: Q01DX001 (ip), vehicle: saline
[4] = dose: 200.0 mg/kg/injection, schedule: Q04DX003 (ip), vehicle: saline
[5] = dose: 400.0 mg/kg/injection, schedule: Q01DX001 (ip), vehicle: saline
[6] = dose: 400.0 mg/kg/injection, schedule: Q04DX003 (ip), vehicle: saline
[7] = dose: 100.0 mg/kg/injection, schedule: Q01DX009 (ip), vehicle: saline
[8] = dose: 200.0 mg/kg/injection, schedule: Q01DX009 (ip), vehicle: saline
[9] = dose: 400.0 mg/kg/injection, schedule: Q01DX009 (ip), vehicle: saline
[10] = dose: 100.0 mg/kg/injection, schedule: Q04DX002 (ip), vehicle: Klucel (hydroxypropylcellulose) (HPC)
[11] = dose: 200.0 mg/kg/injection, schedule: Q04DX002 (ip), vehicle: Klucel (hydroxypropylcellulose) (HPC)
[12] = dose: 100.0 mg/kg/injection, schedule: Q04DX003 (ip), vehicle: saline with Tween-80
[13] = dose: 200.0 mg/kg/injection, schedule: Q04DX003 (ip), vehicle: saline with Tween-80
[14] = dose: 400.0 mg/kg/injection, schedule: Q04DX003 (ip), vehicle: saline with Tween-80
[15] = dose: 200.0 mg/kg/injection, schedule: Q04DX003 (ip), vehicle: Klucel (hydroxypropylcellulose) (HPC)
[16] = dose: 25.0 mg/kg/injection, schedule: Q04DX003 (ip), vehicle: saline
[17] = dose: 50.0 mg/kg/injection, schedule: Q04DX003 (ip), vehicle: saline

Measured: T/C

COC1OC(CO)C2OC12 (stereo unspecified)
inactive: dose: 75.0 mg/kg/injection, schedule: Q01DX009 (ip), vehicle: saline 98 % of control and 107 % of control | [1] 104 % of control | [2] 107 % of control and 100 % of control | dose: 150.0 mg/kg/injection, schedule: Q01DX009 (ip), vehicle: saline 110 % of control and 93 % of control | [3] 102 % of control and 96 % of control | [4] 98 % of control and 89 % of control | dose: 300.0 mg/kg/injection, schedule: Q01DX009 (ip), vehicle: saline 102 % of control and 100 % of control | [5] 104 % of control | [6] 100 % of control and 104 % of control

CSC(N)=Nc1ccccc1
inactive: dose: 87.5 mg/kg/injection, schedule: Q01DX009 (ip), vehicle: saline 96 % of control | dose: 175.0 mg/kg/injection, schedule: Q01DX009 (ip), vehicle: saline 100 % of control

CCOC(=O)Nc1cc(NCC(O)CN(C)c2ccccc2)c(N)c(NC(=O)OCC)n1 (stereo unspecified)
inactive: dose: 100.0 mg/kg/injection, schedule: Q01DX001 (ip), vehicle: carboxymethylcellulose (CMC) 87 % of control | dose: 200.0 mg/kg/injection, schedule: Q01DX001 (ip), vehicle: carboxymethylcellulose (CMC) 87 % of control | dose: 400.0 mg/kg/injection, schedule: Q01DX001 (ip), vehicle: carboxymethylcellulose (CMC) 92 % of control

Fc1c(F)c(F)[c]([Hg][c]2c(F)c(F)c(F)c(F)c2F)c(F)c1F
inactive: dose: 3.13 mg/kg/injection, schedule: Q04DX002 (ip), vehicle: saline with Tween-80 107 % of control | dose: 6.25 mg/kg/injection, schedule: Q04DX002 (ip), vehicle: saline with Tween-80 93 % of control | dose: 12.5 mg/kg/injection, schedule: Q04DX002 (ip), vehicle: saline with Tween-80 87 % of control | dose: 25.0 mg/kg/injection, schedule: Q04DX002 (ip), vehicle: saline with Tween-80 97 % of control

COC1=C(Nc2cccc(C)c2C)C(=O)C(OC)=C(Nc2cccc(C)c2C)C1=O
inactive: dose: 50.0 mg/kg/injection, schedule: Q01DX001 (ip), vehicle: saline 97 % of control | [1] 103 % of control | [7] 111 % of control | [2] 98 % of control | [3] 115 % of control | [8] 96 % of control | [4] 91 % of control | [5] 103 % of control | [9] 90 % of control | [6] 91 % of control

CC(=O)Cc1cc(C)nc(NC#N)n1
inactive: [10] 102 % of control | [11] 98 % of control

CCCCCCCCCCOc1ccc(OCCCCCCCCC)cc1
inactive: [12] 94 % of control | [13] 100 % of control | [14] 87 % of control

CCOC(=O)C12CCC(=O)CC1(O)CCC1(C2)OCCCO1 (stereo unspecified)
inactive: dose: 100.0 mg/kg/injection, schedule: Q## X003 (ip), vehicle: saline 98 % of control | dose: 200.0 mg/kg/injection, schedule: Q## X003 (ip), vehicle: saline 104 % of control | dose: 400.0 mg/kg/injection, schedule: Q## X003 (ip), vehicle: saline 102 % of control

CC(=O)Oc1cc(C(c2ccccc2)c2ccccc2)ccc1N(C(C)=O)S(=O)(=O)c1ccccc1
inactive: [12] 92 % of control | [13] 88 % of control | [14] 92 % of control

Clc1cnc(C(Cl)(Cl)Cl)c(Cl)n1 (tested in a mixture with another compound)
inactive: dose: 12.5 mg/kg/injection, schedule: Q01DX009 (ip), vehicle: Klucel (hydroxypropylcellulose) (HPC) 94 % of control | dose: 25.0 mg/kg/injection, schedule: Q01DX009 (ip), vehicle: Klucel (hydroxypropylcellulose) (HPC) 97 % of control | dose: 50.0 mg/kg/injection, schedule: Q01DX009 (ip), vehicle: Klucel (hydroxypropylcellulose) (HPC) 100 % of control

FC(F)(F)c1nccc(=S)[nH]1
inactive: dose: 50.0 mg/kg/injection, schedule: Q01DX Z (ip), vehicle: methylcellulose (MC) 98 % of control | dose: 100.0 mg/kg/injection, schedule: Q01DX Z (ip), vehicle: methylcellulose (MC) 90 % of control

CC(NC(=O)OCc1ccccc1)C(=O)Oc1cc(Cl)c(Cl)cc1Cl (stereo unspecified)
inactive: [1] 92 % of control | [7] 95 % of control | [2] 91 % of control | [3] 97 % of control | [8] 93 % of control | [15] 87 % of control | [4] 91 % of control | [5] 92 % of control | [9] 92 % of control

CC(C)[P+](c1ccccc1)(c1ccccc1)c1ccccc1
inactive: dose: 5.0 mg/kg/injection, schedule: Q01DX001 (ip), vehicle: saline 108 % of control | dose: 10.0 mg/kg/injection, schedule: Q01DX001 (ip), vehicle: saline 111 % of control | dose: 16.25 mg/kg/injection, schedule: Q01DX009 (ip), vehicle: saline 100 % of control | dose: 20.0 mg/kg/injection, schedule: Q01DX001 (ip), vehicle: saline 118 % of control | [16] 113 % of control | dose: 40.0 mg/kg/injection, schedule: Q01DX001 (ip), vehicle: saline 113 % of control | [17] 103 % of control | dose: 65.0 mg/kg/injection, schedule: Q04DX003 (ip), vehicle: saline 107 % of control and 116 % of control | [1] 108 % of control | [2] 118 % of control | dose: 150.0 mg/kg/injection, schedule: Q04DX003 (ip), vehicle: saline 90 % of control

C=C[Si](C)(C=C)C=C
inactive: dose: 100.0 mg/kg/injection, schedule: Q01DX005 (ip), vehicle: saline 94 % of control | dose: 200.0 mg/kg/injection, schedule: Q01DX005 (ip), vehicle: saline 97 % of control | dose: 400.0 mg/kg/injection, schedule: Q01DX005 (ip), vehicle: saline 94 % of control

CCCP(=S)(CC)CC
inactive: [10] 90 % of control | [11] 93 % of control | dose: 400.0 mg/kg/injection, schedule: Q04DX002 (ip), vehicle: Klucel (hydroxypropylcellulose) (HPC) 90 % of control

O=C(NC(Cc1ccccc1)C(=O)O)c1ccccc1 (stereo unspecified)
inactive: dose: 100.0 mg/kg/injection, schedule: Q01DX009 (ip), vehicle: saline with Tween-80 91 % of control | [12] 94 % of control and 92 % of control | dose: 200.0 mg/kg/injection, schedule: Q01DX009 (ip), vehicle: saline with Tween-80 95 % of control | [13] 96 % of control and 95 % of control | dose: 400.0 mg/kg/injection, schedule: Q01DX009 (ip), vehicle: saline with Tween-80 90 % of control | [14] 97 % of control and 90 % of control

O=c1cc(S(=O)(=O)c2ccccc2)[nH]c(=O)[nH]1
inactive: dose: 100.0 mg/kg/injection, schedule: Q04DX003 (ip), vehicle: Klucel (hydroxypropylcellulose) (HPC) 97 % of control | [15] 101 % of control

CC(=O)c1cccc(NC(=O)c2ccc(C(=O)Nc3cccc(C(C)=O)c3)cc2)c1
inactive: dose: 100.0 mg/kg/injection, schedule: Q01DX001 (ip), vehicle: other 104 % of control | dose: 200.0 mg/kg/injection, schedule: Q01DX001 (ip), vehicle: other 102 % of control | dose: 400.0 mg/kg/injection, schedule: Q01DX001 (ip), vehicle: other 89 % of control

CC(=O)OC1C=C2CCC3C(CC(=O)C4(C)C3CC3OC34C(C)=O)C2(C)CC1 (stereo unspecified)
inactive: dose: 12.5 mg/kg/injection, schedule: Q04DX002 (ip), vehicle: saline 98 % of control | dose: 25.0 mg/kg/injection, schedule: Q04DX002 (ip), vehicle: saline 102 % of control | dose: 50.0 mg/kg/injection, schedule: Q04DX002 (ip), vehicle: saline 109 % of control

CCCCCCCC(=O)N1C(C)CCC1C (stereo unspecified)
inactive: dose: 100.0 mg/kg/injection, schedule: Q04DX002 (ip), vehicle: saline 94 % of control | dose: 200.0 mg/kg/injection, schedule: Q04DX002 (ip), vehicle: saline 94 % of control | dose: 400.0 mg/kg/injection, schedule: Q04DX002 (ip), vehicle: saline 98 % of control

O=C1C=CC(=C(Br)Br)O1
inactive: dose: 12.5 mg/kg/injection, schedule: Q04DX003 (ip), vehicle: saline with Tween-80 92 % of control | dose: 12.5 mg/kg/injection, schedule: Q04DX003 (ip), vehicle: saline 97 % of control | dose: 25.0 mg/kg/injection, schedule: Q04DX003 (ip), vehicle: saline with Tween-80 103 % of control | [16] 95 % of control | [17] 92 % of control | [2] 98 % of control

O=C(Nc1ccc(Cl)cc1)C(O)C(O)C(O)C(O)CO (stereo unspecified)
inactive: dose: 50.0 mg/kg/injection, schedule: Q01DX009 (ip), vehicle: saline 100 % of control | [7] 103 % of control | [8] 100 % of control
